Results as given in US6063814A, “Phorbol esters as anti-neoplastic and white blood cell elevating agents” (priority 1997, dated 2000).
Several values for one entry are separate records, joined by “and”; a condition that tells them apart may be missing. Equal values may be shown once. Entries after “also recorded” stand apart in the source; their conditions may differ.

Tested on: White Blood Cell (WBC)
Test: TPA induced white blood cell changes in patients with solid tumors undergoing chemotherapy
Format: in vivo, humans
Experimental: TPA solution in a sterile syringe was injected into 200 ml of saline and mixed well for i.v. infusion.
Patients undergoing chemotherapy for the treatment of solid tumors.
Subject No. (11), person. Diagnosis: malignant lymphoma. The patient had received adramycin, vincristine, and hormonal treatment. The blood cell counts were decreased to: Hb: 78 g/L, WBC: 0.7×10^9 /L, platelet: 245×10^9 /L. 0.25 mg TPA was administered to the patient 4 times. The blood cell counts improved to: Hb: 76 g/L, WBC: 6.8×10^9 /L, platelet: 331×10^9 /L. Chemotherapy was then continued for 5 more days, and followed by one dose of 0.5 mg TPA. The WBC count was maintained at 3.0×10^9 /L. The patient is still receiving treatment.
Subject No. (12), person. Diagnosis: brain tumor. Blood profile after chemotherapy was: Hb: 119 g/L, WBC: 3.0×10^9 /L, platelet: 399×10^9 /L. 0.25 mg TPA was given to the patient once. On the day after the TPA treatment, the blood profile was Hb: 123 g/L, WBC: 4.5×10^9 /L, platelet: 436×10^9 /L. The patient received further chemotherapy.
Subject No. (13), person. Diagnosis: lung cancer. After chemotherapy, their blood cell counts were decreased to: Hb: 76 g/L, WBC: 0.9×10^9 /L, platelet: 100×10^9 /L. 0.25 mg TPA was given to the patient twice. On the day after the TPA treatment, Hb: 74 g/L, WBC: 2.5×10^9 /L, platelet: 110×10^9 /L. The patient is still receiving treatment.
Subject No. (14), person. Diagnosis: breast cancer. The WBC after chemotherapy was 3.8×10^9 /L. 0.25 mg of TPA was given to the patient once. The WBC on the day after the TPA treatment was 8.0×10^9 /L.
Subject No. (15), person. Diagnosis: Esophageal Cancer. Surgery was performed, followed by chemotherapy using cisplatin, 5-fluorouracil. Blood profile (before TPA): WBC: 2.4×10^9 /L; neutrophil: 83%, lymphocyte: 17%; platelet: 150×10^9 /L; RBC: 3.43×10^12 /L; Hb: 107 g/L. TPA dosage: 0.25 mg. […] The cardiac, hepatic, renal and pulmonary functions were normal.
Subject No. (16), person. Diagnosis: Esophageal Cancer. Surgery was performed, followed by chemotherapy using VP16, MTX, MMC and cisplatin. TPA dose: 0.25 mg. Blood profile (before TPA): WBC: 2.4×10^9 /L; neutrophil: 67%; lymphocyte: 23%; platelet: 101×10^9 /L; RBC: 3.45×10^12 /L; Hb: 114 g/L. Blood profile (one day after TPA): WBC: 5.2×10^9 /L; neutrophil: 87%; lymphocyte: 13%; platelet 60×10^9 /L; RBC: 3.76×10^12 /L; Hb: 122 g/L. Blood profile (2 days after TPA administration).
Subject No. (17), person. Diagnosis: breast cancer. Surgery was performed, followed by chemotherapy using CTX, MTX, and 5-FU. TPA dose: 0.25 mg×2 (Second dose was 4 days after 1st dose). […] The cardiac, hepatic, renal and pulmonary functions were normal.
Subject No. (18), person. Diagnosis: Colon cancer. Surgery was performed, followed by chemotherapy using Cisplatin, VP16, and 5-FU. TPA dose: 0.25 mg×2 (2nd TPA dose was administered 24 hrs after 1st TPA dose). […] Cardiac hepatic, renal and pulmonary functions were normal.
Subject No. (19), person. Diagnosis: lung cancer metastasized to adrenal gland. Surgery was performed, followed by chemotherapy using MMC, VCR, and CTX. TPA dosage: 0.25 mg×2 (2nd TPA dose was administered 24 hrs after 1st TPA dose). […] Cardiac, hepatic renal and pulmonary functions were normal.
Subject No. (20), person. Diagnosis: esophageal cancer metastasized to liver, lung and brain. The patient received chemotherapy using Taxol, cisplatin, 5-FU and Semustial. Total TPA dosage: 2mg. Blood profile (before TPA): WBC: 0.7×10^9 /L; neutrophil: 29%; lymphocyte: 71%; platelet: N/A; RBC: 2.82×10^12 /L; Hb: 87 g/L. TPA treatment schedule. On the first and third day, 0.25 mg was given and on the 5th, 7th and 9th day 0.5 mg of TPA was given. […] Cardiac, hepatic, renal and pulmonary functions were normal.
Subject No. (21), person. Diagnosis: lymphoma metastasized to bone marrow. […]

[1] = 2 days after second TPA dose (0.25 mg×2)
[2] = 2 days after single TPA 0.25 mg
[3] = 4 days after single TPA 0.25 mg
[4] = 7 days after single TPA 0.25 mg
[5] = one day after second TPA dose (0.25 mg×2)
[6] = one day after single TPA 0.25 mg
[7] = solid tumor patients after TPA 0.25 mg doses
[8] = subject 11, malignant lymphoma, after 0.25 mg TPA 4 times
[9] = subject 17, 3 days after first TPA dose 0.25 mg
[10] = subject 17, 4 days after second TPA dose 0.25 mg
[11] = subject 20, 11th day, TPA total 2 mg over 9 days
[12] = subject 20, day 2, TPA total 2 mg over 9 days
[13] = subject 20, day 4, TPA total 2 mg over 9 days
[14] = subject 20, day 6, TPA total 2 mg over 9 days
[15] = subject 20, day 8, TPA total 2 mg over 9 days
[16] = subject 20, day 13, TPA total 2 mg over 9 days
[17] = subject 21, day 2, TPA total 2.5 mg, days 1-8
[18] = subject 21, day 4, TPA total 2.5 mg, days 1-8
[19] = subject 21, day 7, TPA total 2.5 mg, days 1-8
[20] = subject 21, day 9, TPA total 2.5 mg, days 1-8

## CCCCCCCCCCCCCC(=O)O[C@@H]1[C@@H](C)[C@@]2(O)[C@@H](C=C(CO)C[C@]3(O)C(=O)C(C)=C[C@@H]23)[C@@H]2C(C)(C)[C@]12OC(C)=O [TPA, Phorbol 12-Myristate-13-Acetate]
[1]
  Hb: 101 g/L
  WBC: 3.8e+09 L⁻¹ and 5e+09 L⁻¹
  lymphocyte: 16% and 20%
  neutrophil: 84% and 80%
  platelet: 8.4e+10 L⁻¹
[2]
  Hb: 109 g/L and 116 g/L
  RBC: 2.99e+12 L⁻¹
  WBC: 4.5e+09 L⁻¹ and 5.6e+09 L⁻¹
  lymphocyte: 20% and 19%
  neutrophil: 80% and 81%
  platelet: 6.4e+10 L⁻¹
[3]
  Hb: 112 g/L and 129 g/L
  RBC: 3.36e+12 L⁻¹
  WBC: 4.4e+09 L⁻¹ and 3.9e+09 L⁻¹
  platelet: 1.05e+11 L⁻¹
[4]
  Hb: 118 g/L and 138 g/L
  neutrophil: 82% and 48%
After and during chemotherapy
  recovery of infection fighting cells: help speed the rapid recovery of the infection fighting cells
[5]
  Hb: 74 g/L and 112 g/L and 93 g/L
  RBC: 4.1 ×10^12
  neutrophil: 60% and 82%
  platelet: 1.1e+11 L⁻¹ and 1.98e+11 L⁻¹
[6]
  Hb: 123 g/L and 109 g/L and 122 g/L and 116 g/L and 139 g/L and 126 g/L and 120 g/L
  RBC: 3.33e+12 L⁻¹ and 3.76e+12 L⁻¹
  neutrophil: 94% and 87% and 79% and 53% and 60% and 90% and 83%
Patients receiving chemotherapy, often
  time of elevation of white blood cell count: within one day
[7]
  duration of fever: 4 h
  fever, temperature after TPA: 38 °C and 39.2 °C and 37.8 °C and 39 °C
Solid tumor patients after TPA, one subject per block
  cardiac, hepatic, renal and pulmonary functions: normal; also recorded: same as before TPA treatment; also recorded: functioning normally
Solid tumor patients undergoing chemotherapy, one subject per block
  Symptoms after TPA: Chill, fever, local irritation and slight headache; also recorded: chills, fever, local irritation; also recorded: Chills at 5th day which lasted about one hour; also recorded: No chills and fever, only local irritation; also recorded: No chills. Low fever; also recorded: Stomach ache and diarrhea (which disappeared soon after)
Subject 11, after 5 more days chemotherapy and one dose 0.5 mg TPA
  WBC count maintained: 3e+09 L⁻¹
[8]
  Hb: 76 g/L
  WBC: 6.8e+09 L⁻¹
  platelet: 3.31e+11 L⁻¹
[9]
  Hb: 107 g/L
  RBC: 3.36e+12 L⁻¹
  WBC: 2.9e+09 L⁻¹
  lymphocyte: 17%
  neutrophil: 83%
  platelet: 1.22e+11 L⁻¹
[10]
  Hb: 112 g/L
  RBC: 3.49e+12 L⁻¹
  WBC: 4.4e+09 L⁻¹
  lymphocyte: 14%
  neutrophil: 86%
  platelet: 1.93e+11 L⁻¹
Subject 17, TPA 0.25 mg×2
  duration of chills: 2 h
[11]
  Hb: 61 g/L
  RBC: 2.91e+12 L⁻¹
  WBC: 2.7e+09 L⁻¹
  lymphocyte: 15%
  neutrophil: 85%
  platelet: 3.76e+10 L⁻¹
[12]
  Hb: 72 g/L
  RBC: 2.17e+12 L⁻¹
  WBC: 9e+08 L⁻¹
  lymphocyte: 34%
  neutrophil: 66%
  platelet: 8.2e+10 L⁻¹
[13]
  Hb: 58 g/L
  RBC: 2.09e+12 L⁻¹
  WBC: 1.1e+09 L⁻¹
  lymphocyte: 9%
  neutrophil: 91%
  platelet: 3.9e+10 L⁻¹
[14]
  Hb: 70 g/L
  RBC: 1.9 ×10^12
  WBC: 1.9e+09 L⁻¹
  lymphocyte: 5%
  neutrophil: 95%
  platelet: 4.3e+10 L⁻¹
[15]
  Hb: 61 g/L
  RBC: 1.71e+12 L⁻¹
  WBC: 2.3e+09 L⁻¹
  lymphocyte: 9%
  neutrophil: 91%
  platelet: 9e+10 L⁻¹
[16]
  Hb: 57 g/L
  RBC: 1.73e+12 L⁻¹
  WBC: 1.9e+09 L⁻¹
  lymphocyte: 10%
  neutrophil: 90%
  platelet: 3.2e+10 L⁻¹
[17]
  Hb: 117 g/L
  RBC: 4.15e+12 L⁻¹
  WBC: 6e+08 L⁻¹
  platelet: 6.9e+10 L⁻¹
[18]
  Hb: 109 g/L
  RBC: 3.95e+12 L⁻¹
  WBC: 6e+08 L⁻¹
  lymphocyte: 72%
  neutrophil: 28%
  platelet: 6.8e+10 L⁻¹
[19]
  Hb: 110 g/L
  RBC: 4.22e+12 L⁻¹
  WBC: 8e+08 L⁻¹
  lymphocyte: 12%
  neutrophil: 88%
  platelet: 6e+10 L⁻¹
[20]
  Hb: 112 g/L
  RBC: 4.02e+12 L⁻¹
  WBC: 1.5e+09 L⁻¹
  lymphocyte: 2%
  neutrophil: 80%
  platelet: 6.9e+10 L⁻¹
Subject 25, TPA 0.25 mg
  resolution of injection site symptoms: disappeared the second day after they appeared
Subject 25, TPA 0.25 mg, probably caused by infusion needle
  injection site reaction: red, swollen in appearance and painful
Subject 26, TPA 0.25 mg
  duration of raised temperature: 3 h
Three days after TPA 0.25 mg
  Hb: 123 g/L
  WBC: 2.9e+09 L⁻¹
  lymphocyte: 27%
  neutrophil: 73%
